Measured values reported in ChEMBL document CHEMBL4043153, “Lead selection of antiparasitic compounds from a focused library of benzenesulfonyl derivatives of heterocycles” (Bioorg Med Chem Lett, 2017).
Activity calls are given as the source filed them. The rule behind the calls is not given here.

Tests used:
[1] = tested on: Plasmodium falciparum; assay: (§1) Antiparasitic activity against intraerythrocytic form of chloroquine/pyrimethamine-resistant Plasmodium falciparum K1 infected in human RBC preincubated for 48 hrs followed by [3H]-hypoxanthine addition measured after 24 hrs by liquid scintillation counting analysis; type: functional
[2] = tested on: Trypanosoma cruzi; assay: Antiparasitic activity against Trypanosoma cruzi Tulahuen C4 intracellular amastigotes infected in rat L6 cells assessed as growth inhibition at 4.8 ug/ml after 96 hrs by CPRG/Nonidet reagent based photometric analysis relative to control; type: functional; conditions: Tulahuen C4, L6, 96 h, read-out: GI
[3] = tested on: Trypanosoma brucei rhodesiense; assay: Antiparasitic activity against Trypanosoma brucei rhodesiense STIB 900 trypomastigote bloodstream form assessed as growth inhibition at 0.8 ug/ml after 72 hrs by resazurin dye-based fluorometric analysis relative to control; type: functional; conditions: STIB 900, 72 h, read-out: GI
[4] = tested on: Leishmania donovani; assay: Antiparasitic activity against Leishmania donovani MHOM-ET-67/L82 axenic amastigotes assessed as growth inhibition at 4.8 ug/ml after 72 hrs by resazurin dye-based fluorometric analysis relative to control; type: functional; conditions: MHOM-ET-67/L82, 72 h, read-out: GI
[5] = tested on: Trypanosoma brucei rhodesiense; assay: Antiparasitic activity against Trypanosoma brucei rhodesiense STIB 900 trypomastigote bloodstream form assessed as growth inhibition at 4.8 ug/ml after 72 hrs by resazurin dye-based fluorometric analysis relative to control; type: functional; conditions: STIB 900, 72 h, read-out: GI
[6] = Selectivity index, ratio of IC50 for rat L6 cells to IC50 for Trypanosoma cruzi Tulahuen C4 intracellular amastigotes infected in rat L6 cells; type: toxicity, cell-based; conditions: read-out: Ratio IC50
[7] = tested on: Leishmania donovani; assay: Antiparasitic activity against Leishmania donovani MHOM-ET-67/L82 axenic amastigotes assessed as growth inhibition at 0.8 ug/ml after 72 hrs by resazurin dye-based fluorometric analysis relative to control; type: functional; conditions: MHOM-ET-67/L82, 72 h, read-out: GI
[8] = tested on: Trypanosoma cruzi; assay: Antiparasitic activity against Trypanosoma cruzi Tulahuen C4 intracellular amastigotes infected in rat L6 cells assessed as growth inhibition at 0.8 ug/ml after 96 hrs by CPRG/Nonidet reagent based photometric analysis relative to control; type: functional; conditions: Tulahuen C4, L6, 96 h, read-out: GI
[9] = tested on: Plasmodium falciparum; assay: as §1, with “RBC assessed as growth inhibition at 4.8 ug/ml” for “RBC”, “analysis relative to control” for “analysis”; type: functional; conditions: read-out: GI
[10] = tested on: Trypanosoma cruzi; assay: Antiparasitic activity against Trypanosoma cruzi Tulahuen C4 intracellular amastigotes infected in rat L6 cells after 96 hrs by CPRG/Nonidet reagent based photometric analysis; type: functional, cell-based; conditions: Tulahuen C4, L6, 96 h
[11] = tested on: Plasmodium falciparum; assay: as §1, with “RBC assessed as growth inhibition at 0.8 ug/ml” for “RBC”, “analysis relative to control” for “analysis”; type: functional; conditions: read-out: GI
[12] = tested on: L6; assay: Cytotoxicity against rat L6 cells assessed as cell viability after 72 hrs by Alamar blue assay; type: cell-based; conditions: L6, 72 h

| SMILES | Activity [1] | inhibition of growth at 4.8 µg/mL [2] [%] | inhibition of growth at 0.8 µg/mL [3] [%] | inhibition of growth at 4.8 µg/mL [4] [%] | inhibition of growth at 4.8 µg/mL [5] [%] | selectivity ratio [6] | inhibition of growth at 0.8 µg/mL [7] [%] | inhibition of growth at 0.8 µg/mL [8] [%] | inhibition of growth at 4.8 µg/mL [9] [%] | IC50 [10] [µM] | inhibition of growth at 0.8 µg/mL [11] [%] | IC50 [12] [µM] |
| --- | --- | --- | --- | --- | --- | --- | --- | --- | --- | --- | --- | --- |
| O=[N+]([O-])c1ccc(S(=O)(=O)n2nnc3ccccc32)cc1 | Active |  |  |  |  |  |  |  |  |  |  |  |
| CC1Cc2ccccc2N1S(=O)(=O)c1ccc(Cl)cc1 (centres undefined) |  | 100 | 6.5 | 83.3 | 4 | 2.31 | 9 | 0 | 87.9 | 4.79 | 17.7 | 11.1 |
| CC1Cc2ccccc2N1S(=O)(=O)c1ccc(Br)cc1 (centres undefined) |  | 100 | 0 | 81.4 | 0.9 | 2.29 | 17.6 | 0 | 76 | 5.76 | 9.1 | 13.2 |
| CC1Cc2ccccc2N1S(=O)(=O)c1ccccc1 (centres undefined) | Active | 5.2 | 4.6 | 27.9 | 0 |  | 12.5 | 0 | 46.4 |  | 13.2 |  |
| COc1ccc(S(=O)(=O)N2c3ccccc3CC2C)cc1 (centres undefined) |  | 100 | 1.2 | 35 | 4.4 | 0.04 | 2.9 | 1.8 | 49.3 | 9.46 | 5.3 | 0.44 |
| O=[N+]([O-])c1cccc(S(=O)(=O)N2CCc3ccccc32)c1 |  | 100 | 0 | 95.4 | 4.3 | 14 | 15.9 | 36.4 | 79.2 | 1.08 | 14.7 | 15.1 |
| O=[N+]([O-])c1ccccc1S(=O)(=O)N1CCc2ccccc2C1 |  | 27.5 | 10.8 | 57 | 6.9 |  | 17.8 | 3.1 | 19.8 |  | 0 |  |
| O=[N+]([O-])c1ccc(S(=O)(=O)n2ccc3ccccc32)cc1 | Active | 75 | 8.6 | 77.6 | 29.3 |  | 24.2 | 18.3 | 60.4 |  | 2.5 |  |
| O=S(=O)(c1cccc(C(F)(F)F)c1)N1CCCc2ccccc21 |  | 62.6 | 2.4 | 73.1 | 2.5 |  | 23.7 | 10.4 | 68 |  | 6.6 |  |
| COc1ccc(S(=O)(=O)N2CCc3ccccc32)cc1 |  | 27.4 | 0 | 42.6 | 0 |  | 18.6 | 12.1 | 11.6 |  | 0 |  |
| O=S(=O)(c1ccccc1)N1CCc2ccccc21 | Active | 10 | 0 | 45.3 | 0 |  | 7.4 | 0 | 29.1 |  | 2.9 |  |
| Cc1ccc(S(=O)(=O)N2CCc3ccccc32)cc1 |  | 14.4 | 3.1 | 63.7 | 0 |  | 8.1 | 0 | 20 |  | 0 |  |
